Consider 1 substance from US20070149456A1, “Epithelial sodium channel inhibiting agents and uses therefor” (University of Pittsburgh, priority 2005, published 2007).

This experiment deals with T1, wild-type ENaC (Mus musculus, UniProt Q61180+Q9WU38+Q9WU39, DEL206-231).
T1 construct: expressed in transfected cells; host or cells: Xenopus laevis oocytes (cRNA injection)
T1 sequence (Q61180 with tags, fused parts or gaps DEL206-231): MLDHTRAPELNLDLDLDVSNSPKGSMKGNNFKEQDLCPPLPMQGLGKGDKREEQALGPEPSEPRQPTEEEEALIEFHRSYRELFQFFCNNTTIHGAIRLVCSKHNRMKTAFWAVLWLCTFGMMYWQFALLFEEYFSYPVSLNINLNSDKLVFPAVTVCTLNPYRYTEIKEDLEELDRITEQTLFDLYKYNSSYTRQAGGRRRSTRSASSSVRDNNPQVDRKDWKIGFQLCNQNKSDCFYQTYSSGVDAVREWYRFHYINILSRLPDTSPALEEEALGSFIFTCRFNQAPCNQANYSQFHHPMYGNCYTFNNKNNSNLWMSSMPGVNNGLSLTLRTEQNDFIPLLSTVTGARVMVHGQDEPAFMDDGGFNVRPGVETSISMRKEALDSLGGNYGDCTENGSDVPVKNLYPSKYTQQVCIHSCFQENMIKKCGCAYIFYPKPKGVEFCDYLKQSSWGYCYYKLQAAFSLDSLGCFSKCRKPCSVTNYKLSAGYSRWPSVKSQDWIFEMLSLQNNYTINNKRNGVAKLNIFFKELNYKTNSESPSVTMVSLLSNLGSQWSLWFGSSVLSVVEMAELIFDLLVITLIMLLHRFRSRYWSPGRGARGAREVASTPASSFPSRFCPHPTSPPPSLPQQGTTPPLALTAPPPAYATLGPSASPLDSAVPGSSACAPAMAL
T1 sequence (Q9WU38 1-638): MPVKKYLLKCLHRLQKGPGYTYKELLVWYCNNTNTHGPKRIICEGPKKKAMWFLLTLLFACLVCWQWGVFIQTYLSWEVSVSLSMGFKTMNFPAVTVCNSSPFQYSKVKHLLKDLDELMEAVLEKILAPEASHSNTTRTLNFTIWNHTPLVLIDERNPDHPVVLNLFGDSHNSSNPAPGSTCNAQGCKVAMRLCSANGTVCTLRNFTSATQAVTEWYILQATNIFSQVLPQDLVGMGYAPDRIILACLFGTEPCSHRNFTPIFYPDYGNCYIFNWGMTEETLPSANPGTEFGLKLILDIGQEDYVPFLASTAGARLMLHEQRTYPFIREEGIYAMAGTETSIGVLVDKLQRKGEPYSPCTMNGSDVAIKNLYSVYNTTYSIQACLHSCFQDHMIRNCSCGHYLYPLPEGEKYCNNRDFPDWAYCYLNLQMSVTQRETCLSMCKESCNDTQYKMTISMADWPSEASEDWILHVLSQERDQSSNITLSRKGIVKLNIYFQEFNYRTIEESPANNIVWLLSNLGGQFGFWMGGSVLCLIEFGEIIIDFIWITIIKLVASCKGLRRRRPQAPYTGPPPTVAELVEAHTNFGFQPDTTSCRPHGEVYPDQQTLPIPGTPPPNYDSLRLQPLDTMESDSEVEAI
T1 sequence (Q9WU39 1-655): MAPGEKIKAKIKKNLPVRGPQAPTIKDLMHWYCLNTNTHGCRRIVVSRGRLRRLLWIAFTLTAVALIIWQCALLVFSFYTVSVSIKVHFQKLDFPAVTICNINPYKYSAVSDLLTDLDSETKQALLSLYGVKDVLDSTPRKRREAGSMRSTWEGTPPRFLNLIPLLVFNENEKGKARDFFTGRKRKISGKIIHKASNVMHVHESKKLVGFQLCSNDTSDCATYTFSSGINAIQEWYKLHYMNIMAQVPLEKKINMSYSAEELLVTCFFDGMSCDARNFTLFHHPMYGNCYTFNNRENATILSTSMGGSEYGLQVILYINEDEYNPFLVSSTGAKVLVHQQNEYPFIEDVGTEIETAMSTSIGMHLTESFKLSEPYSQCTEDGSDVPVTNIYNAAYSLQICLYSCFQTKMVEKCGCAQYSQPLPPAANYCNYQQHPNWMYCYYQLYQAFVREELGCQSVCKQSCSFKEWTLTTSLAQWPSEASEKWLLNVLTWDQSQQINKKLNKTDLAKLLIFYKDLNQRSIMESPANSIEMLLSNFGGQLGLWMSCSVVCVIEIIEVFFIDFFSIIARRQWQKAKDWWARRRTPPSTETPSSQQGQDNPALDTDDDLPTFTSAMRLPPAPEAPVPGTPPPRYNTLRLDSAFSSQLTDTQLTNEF
Put plainly: Single channel cell-attached patch clamp in oocytes expressing wild-type ENaC, pipette back filled with peptide. The format is cell-based. As to the method: Single Channel Studies—Bath and pipette solutions contained (in mM) 110 LiCl, 2 CaCl2, 2 KCl, and 10 Hepes, pH 7.4. Experiments were performed as previously described (Carattino, M. D., Sheng, S., and Kleyman, T. R. (2005), Mutations in the pore region modify epithelial sodium channel gating by shear stress, J Biol. Chem. 280, 4393-4401 33). Single channel currents were recorded in the cell-attached configuration of patch clamp, acquired at 5 kHz and filtered at 1 kHz by a 4-pole low pass Bessel filter. Single channel currents were further filtered at 100-200 Hz with a Gaussian filter for display and analysis. Recordings were performed at an applied pipette potential of +60 mV.
For experiments performed with α-26, the tip of the pipette was filled with standard patch solution. Pipette resistances were similar in control (7.8±0.4 MΩ) and α-26-treated patches (6.9±0.6 MΩ) (p=0.30, unpaired t test). […] Unitary currents, at an applied pipette potential of +60 mV, were similar in both control (0.42±0.2 pA, n=5) and α-26-containing patches (0.39±0.2 pA, n=7) (p=0.32, unpaired t test). […] At the beginning of the experiment open times were similar to that observed in controls (FIG. 4B). Over the course of the experiment openings decreased and were shorter in duration compared with control until channels were fully closed. […]
On the technique in general: Patch clamp records ionic current or voltage across a cell membrane.

Entries after “also recorded” stand apart in the source; their conditions may differ.

Regarding “Ac-DLRGALPHPLQRLRTPPPPNPARSAR-NH2 [α-26]”, the unitary currents (applied pipette potential +60 mV, α-26 10 μM in pipette) is 0.39±0.2 pA. Besides, for the setting “pipette backfilled with α-26 10 μM”, the “product of the number of channels and open probability (NPo) compared with controls” value is given as “reduces ENaC open probability; also recorded: reduction”.
